{
  "source": "paper PMC7923178",
  "about": "“Binding of Amyloid β(1–42)-Calmodulin Complexes to Plasma Membrane Lipid Rafts in Cerebellar Granule Neurons Alters Resting Cytosolic Calcium Homeostasis” (International Journal of Molecular Sciences, 2021)",
  "key": {"neurons": {"test_system": "neurons", "conditions": "small oligomeric states of the peptide; cited from earlier work"}, "calmodulin (CaM) [1]": {"test_system": "calmodulin (CaM)", "experiment": "Co-immunoprecipitation of CaM with anti-Aβ antibody in CGN lysates", "type": "binding, rat", "conditions": "CGN lysates treated with 10 mM methyl-β-cyclodextrin 30 min, western blot"}, "[2]": {"test_system": "L-type calcium channels (LTCCs)", "experiment": "LTCC contribution to resting cytosolic calcium (nifedipine-sensitive Fura-2 ratio)"}, "calmodulin (CaM) [3]": {"test_system": "calmodulin (CaM)", "experiment": "Aβ(1–42) binding capacity of CaM in CGN, from western blot quantification of CaM", "set-up": "species or system rat", "conditions": "per Petri plate with […] 10^6 CGN cells (56 ± 6 picomoles CaM per plate); Aβ(1–42) largely dimers"}, "mature CGN [4]": {"test_system": "mature CGN", "experiment": "Internalization of Aβ(1–42) in mature CGN by fluorescence microscopy", "conditions": "2 h incubation with 2 µM Aβ in extracellular medium (1.8 μM Aβ(1–42) plus 0.2 μM HiLyte-Fluor555 derivative), 37 °C, 5% CO2, assuming equal internalization rate, 102 cells"}, "mature CGN [5]": {"test_system": "mature CGN", "experiment": "Resting cytosolic calcium, Fura-2 ratio (340/380) imaging", "type": "cell-based, rat", "conditions": "2 μM, 2–5 h incubation; MLocke's K25 medium; control 160 ± 30 nM"}, "[6]": {"biological_target": "purified calmodulin (CaM)", "conditions": "previous work, read-out: dissociation constant of the complex with purified CaM; cited from earlier work", "excerpt": "Lipid rafts are a primary target in studies of amyloid β (Aβ) cytotoxicity in neurons. Exogenous Aβ peptides bind to lipid rafts, which in turn play a key role in Aβ uptake, leading to the formation of neurotoxic intracellular Aβ aggregates. On the other hand, dysregulation of intracellular calcium homeostasis in neurons has been observed in Alzheimer’s disease (AD). […] In this work, to experim ... || Dysregulation of intracellular calcium homeostasis in neurons is a common metabolic feature in both sporadic and familial forms of AD, which by itself can account for enhanced intraneuronal Aβ production and tau hyperphosphorylation potentiation. […] The ... || (+ 1 further places)"}},
  "note": "pIC50, pKd: −log10 of the molar value.",
  "data": [
    {"molecule": "Aβ(1–42): Unlabeled amyloid β(1–42) peptide synthesized and supplied by StabVida", "values": [
      {"measurement": "half-time of internalization in neurons", "setting": "neurons", "result": "12 to 14", "unit": "h"},
      {"measurement": "co-immunoprecipitation of CaM with anti-Aβ(1–42) antibody", "setting": "calmodulin (CaM) [1]", "result": "co-immunoprecipitation of CaM with the anti-Aβ(1–42) antibody"},
      {"measurement": "inhibition of LTCC activity", "setting": "[2]; 2 µM (monomers) in medium, 2 h incubation of mature CGN", "result": "about 50%"},
      {"measurement": "pIC50", "setting": "[2]; read-out: concentration of internalized Aβ(1–42) dimers that inhibited by 50% the LTCC's activity, internalized dimers after 2 h with 2 µM monomers", "result": "> 7.00"},
      {"measurement": "Aβ(1–42) that can be bound by CaM in CGN", "setting": "calmodulin (CaM) [3]", "result": "up to 120 ± 13 picomoles of Aβ(1–42) /2.5 × 10^6 cells"},
      {"measurement": "intracellular (internalized) concentration of Aβ monomers", "setting": "mature CGN [4]", "result": "193 ± 21", "unit": "nM"},
      {"measurement": "[Ca^2+]i", "setting": "mature CGN [5]", "result": "71 ± 7", "unit": "nM"},
      {"measurement": "pKd", "setting": "[6]", "result": "~9.00"}
    ]},
    {"molecule": "COC(=O)C1=C(C)NC(C)=C(C(=O)OC)C1c1ccccc1[N+](=O)[O-]", "note": "[nifedipine, Nifedipine]", "values": [
      {"measurement": "difference between the ratio 340/380 in the absence and presence of nifedipine", "setting": "[2]; CGN non-treated with amyloid β(1–42), nifedipine 2 μM or 10 µM", "result": 0.64},
      {"measurement": "blockade of Ca2+ entry in the soma", "setting": "[2]; nifedipine 10 µM, untreated and Aβ-treated cells", "result": "totally blocks"}
    ]},
    {"molecule": "Aβ(25–35): amyloid β peptide fragment 25–35, cited from previous work (GSNKGAIIGLM; Amyloid-beta protein 42; UniProt P05067 696-706, looked up, fragment)", "values": [
      {"measurement": "pKd", "setting": "[6]", "result": "~9.00"}
    ]}
  ]
}
